Measurements taken from patent publication US20180194762A1 (Pharmacyclics LLC, priority 2017, published 2018).

What was measured:
Assay type in all cases: biochemical
TEC = target: T1, TEC (Homo sapiens, UniProt P42680); assay: Inhibition of a panel of kinases (in vitro HotSpot kinase assay, 33P-ATP, 1 μM ATP); conditions: for IC50: HotSpot kinase assay, 1 μM ATP; for TEC/Btk: ratio of TEC IC50 to Btk IC50 (selectivity)
T1 sequence (P42680 1-631): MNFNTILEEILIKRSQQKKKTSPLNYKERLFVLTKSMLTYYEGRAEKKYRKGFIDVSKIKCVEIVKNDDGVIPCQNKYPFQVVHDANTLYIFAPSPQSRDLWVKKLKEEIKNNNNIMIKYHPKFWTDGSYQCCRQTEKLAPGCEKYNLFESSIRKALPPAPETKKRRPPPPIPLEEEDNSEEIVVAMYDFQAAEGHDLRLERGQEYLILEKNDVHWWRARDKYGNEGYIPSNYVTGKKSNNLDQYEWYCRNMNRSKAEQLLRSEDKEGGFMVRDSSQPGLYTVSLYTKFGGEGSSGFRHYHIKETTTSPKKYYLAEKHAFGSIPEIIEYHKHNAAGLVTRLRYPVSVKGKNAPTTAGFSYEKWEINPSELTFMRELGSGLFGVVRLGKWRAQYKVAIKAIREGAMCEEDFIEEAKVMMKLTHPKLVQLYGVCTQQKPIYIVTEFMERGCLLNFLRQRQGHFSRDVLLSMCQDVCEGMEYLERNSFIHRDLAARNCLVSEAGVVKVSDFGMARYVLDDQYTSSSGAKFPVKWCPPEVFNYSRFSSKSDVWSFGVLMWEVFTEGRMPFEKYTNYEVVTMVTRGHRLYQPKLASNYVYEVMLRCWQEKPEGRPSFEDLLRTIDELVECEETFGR
How it was run: (§1)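 Radiometric read-out: 33P transfer to a suitable substrate by each purified enzyme, ATP at 1 μM. Values are degree of inhibition.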

panel of kinases = target: T2, panel of kinases (Homo sapiens, UniProt P51813); assay: Inhibition of a panel of kinases (in vitro HotSpot kinase assay, 33P-ATP, 1 μM ATP), other kinases; conditions: BMX wild-type, read-out: BMX-WT IC50
T2 sequence (P51813 1-675): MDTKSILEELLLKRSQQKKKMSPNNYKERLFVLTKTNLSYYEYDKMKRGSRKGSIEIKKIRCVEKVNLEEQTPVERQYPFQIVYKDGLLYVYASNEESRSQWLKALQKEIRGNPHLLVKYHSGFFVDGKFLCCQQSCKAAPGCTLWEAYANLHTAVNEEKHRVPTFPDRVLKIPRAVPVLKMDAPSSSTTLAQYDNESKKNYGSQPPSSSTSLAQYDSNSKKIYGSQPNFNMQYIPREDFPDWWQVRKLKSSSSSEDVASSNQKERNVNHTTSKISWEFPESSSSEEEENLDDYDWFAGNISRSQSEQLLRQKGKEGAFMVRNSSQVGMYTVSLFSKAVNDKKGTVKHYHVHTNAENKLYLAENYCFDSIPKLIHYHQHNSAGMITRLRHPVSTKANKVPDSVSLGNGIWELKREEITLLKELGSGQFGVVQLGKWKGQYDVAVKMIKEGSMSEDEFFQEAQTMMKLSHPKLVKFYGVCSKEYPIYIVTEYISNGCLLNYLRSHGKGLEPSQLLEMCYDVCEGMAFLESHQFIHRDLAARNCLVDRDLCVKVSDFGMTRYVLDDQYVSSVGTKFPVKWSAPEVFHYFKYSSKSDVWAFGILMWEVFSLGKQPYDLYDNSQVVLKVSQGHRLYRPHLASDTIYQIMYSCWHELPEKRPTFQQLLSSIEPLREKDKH
How it was run: as §1

Btk = target: T3, Btk (Homo sapiens, UniProt Q06187); assay: Btk in vitro inhibitory activity (one of Method A TR-FRET, Method B electrophoretic mobility shift, Method C radiometric filter binding); conditions: wild-type Btk; read-out: Btk-WT IC50
T3 construct: purified from insect cells as a full-length construct containing a N-terminal 6X-His tag; His6 (N); made in house; host or cells: insect cells (Method C)
T3 sequence (Q06187 whole entry): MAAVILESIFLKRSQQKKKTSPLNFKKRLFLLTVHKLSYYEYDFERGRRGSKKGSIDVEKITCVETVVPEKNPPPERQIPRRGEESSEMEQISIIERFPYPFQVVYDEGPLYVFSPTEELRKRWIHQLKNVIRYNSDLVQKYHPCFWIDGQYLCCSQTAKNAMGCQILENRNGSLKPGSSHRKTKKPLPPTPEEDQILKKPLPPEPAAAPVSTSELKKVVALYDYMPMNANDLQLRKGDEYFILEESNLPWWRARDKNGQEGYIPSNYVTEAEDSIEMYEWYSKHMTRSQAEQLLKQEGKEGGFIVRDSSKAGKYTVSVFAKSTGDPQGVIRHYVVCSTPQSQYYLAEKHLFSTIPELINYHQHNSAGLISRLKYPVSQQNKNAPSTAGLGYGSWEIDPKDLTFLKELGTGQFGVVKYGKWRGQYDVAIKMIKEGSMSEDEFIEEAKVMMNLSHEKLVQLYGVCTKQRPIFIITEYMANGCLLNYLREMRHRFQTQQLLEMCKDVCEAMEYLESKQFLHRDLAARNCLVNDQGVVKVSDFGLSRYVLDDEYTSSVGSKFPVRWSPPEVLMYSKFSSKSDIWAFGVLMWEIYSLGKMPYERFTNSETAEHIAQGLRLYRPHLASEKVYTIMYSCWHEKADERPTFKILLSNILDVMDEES
How it was run: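 Three alternative formats were used. A radiometric filter-binding read used 8 nM full-length His-BTK with 0.2 mg/mL poly(Glu-Tyr) 4:1 (C); microfluidic separation of 1 μM FAM-peptide by 1 nM BTK gave IC50 from 12-point curves (B); TR-FRET at Km ATP, 0.5 nM Btk, gave Ki(app)-derived IC50 (A).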

C=CC(=O)N1CCC[C@@H](Nc2n[nH]c3nccc(-c4ccc(C5(NC(=O)c6noc(C(C)(C)C)n6)CC5)cc4)c23)C1 [Example 270, 5-tert-butyl-N-{1-[4-(3-{[(3R)-1-(prop-2-enoyl)piperidin-3-yl]amino}-1H-pyrazolo[3,4-b]pyridin-4-yl)phenyl]cyclopropyl}-1,2,4-oxadiazole-3-carboxamide]
IC50 (TEC): 613 nM
TEC/Btk (TEC): 774
IC50 (panel of kinases): 312 nM
IC50 (Btk): 0.792 nM

C=CC(=O)N1CC[C@@H](Oc2n[nH]c3nccc(-c4ccc(CNC(=O)c5noc(C(C)(C)C)n5)c(F)c4)c23)C1 [Example 272, 5-tert-butyl-N-{[2-fluoro-4-(3-{[(3R)-1-(prop-2-enoyl)pyrrolidin-3-yl]oxy}-1H-pyrazolo[3,4-b]pyridin-4-yl)phenyl]methyl}-1,2,4-oxadiazole-3-carboxamide]
IC50 (TEC): 18.9 nM
TEC/Btk (TEC): 258
IC50 (panel of kinases): 39.2 nM
IC50 (Btk): 0.0732 nM

C=CC(=O)N1CCC(Cc2n[nH]c3nccc(-c4ccc(CNC(=O)c5noc(C(C)(C)C)n5)c(F)c4)c23)C1 (stereo not shown) [Example 275, 5-tert-butyl-N-{[2-fluoro-4-(3-{[1-(prop-2-enoyl)pyrrolidin-3-yl]methyl}-1H-pyrazolo[3,4-b]pyridin-4-yl)phenyl]methyl}-1,2,4-oxadiazole-3-carboxamide]
IC50 (TEC): 338 nM
TEC/Btk (TEC): 605
IC50 (panel of kinases): 158 nM
IC50 (Btk): 0.559 nM

C=CC(=O)N1CCC(c2n[nH]c3nccc(-c4ccc(CNC(=O)c5noc(C(C)(C)C)n5)c(F)c4)c23)C1 (stereo not shown) [Example 279, 5-tert-butyl-N-[(2-fluoro-4-{3-[1-(prop-2-enoyl)pyrrolidin-3-yl]-1H-pyrazolo[3,4-b]pyridin-4-yl}phenyl)methyl]-1,2,4-oxadiazole-3-carboxamide]
IC50 (TEC): 14.9 nM
TEC/Btk (TEC): 162
IC50 (panel of kinases): 8.95 nM
IC50 (Btk): 0.0922 nM

CC(C)(C)c1nc(C(=O)NCc2ccc(-c3ccnc4[nH]nc(C5=CCNC5)c34)cc2F)no1 [Example 280, 5-tert-butyl-N-({4-[3-(2,5-dihydro-1H-pyrrol-3-yl)-1H-pyrazolo[3,4-b]pyridin-4-yl]-2-fluorophenyl}methyl)-1,2,4-oxadiazole-3-carboxamide]
IC50 (TEC): 2150 nM
TEC/Btk (TEC): 243
IC50 (panel of kinases): 1720 nM
IC50 (Btk): 8.84 nM

C=CC(=O)N1CC=C(c2n[nH]c3nccc(-c4ccc(CNC(=O)c5noc(C(C)(C)C)n5)c(F)c4)c23)C1 [Example 281, 5-tert-butyl-N-[(2-fluoro-4-{3-[1-(prop-2-enoyl)-2,5-dihydro-1H-pyrrol-3-yl]-1H-pyrazolo[3,4-b]pyridin-4-yl}phenyl)methyl]-1,2,4-oxadiazole-3-carboxamide]
IC50 (TEC): 4.92 nM
TEC/Btk (TEC): 87
IC50 (panel of kinases): 2.98 nM
IC50 (Btk): 0.0568 nM

CN(C)C(=O)N1CC[C@@H](Oc2n[nH]c3nccc(-c4ccc(CNC(=O)c5noc(C(C)(C)C)n5)c(F)c4)c23)C1 [Example 282, 5-tert-butyl-N-{[4-(3-{[(3R)-1-(dimethylcarbamoyl)pyrroli-din-3-yl]oxy}-1H-pyrazolo[3,4-b]pyridin-4-yl)-2-fluorophenyl]methyl}-1,2,4-oxadiazole-3-carboxamide]
IC50 (TEC): 5240 nM
TEC/Btk (TEC): 504
IC50 (panel of kinases): 6080 nM
IC50 (Btk): 10.4 nM

CC(C)(C)c1noc(C(=O)NCc2ccc(-c3ccnc4[nH]nc(OC5CCNC5)c34)cc2F)n1 (stereo not shown) [Example 283, 3-tert-butyl-N-[(2-fluoro-4-{3-[(pyrrolidin-3-yl)oxy]-1H-pyrazolo[3,4-b]pyridin-4-yl}phenyl)methyl]-1,2,4-oxadiazole-5-carboxamide]
IC50 (TEC): 7160 nM
IC50 (panel of kinases): 2970 nM
IC50 (Btk): 10.9 nM

CC(=O)N1CC[C@H](Oc2n[nH]c3nccc(-c4ccc(CNC(=O)c5nc(C(C)(C)C)no5)c(F)c4)c23)C1 [Example 284, (S)-N-[(4-{3-[(1-acetylpyrrolidin-3-yl)oxy]-1H-pyrazolo[3,4-b]pyridin-4-yl}-2-fluorophenyl)methyl]-3-tert-butyl-1,2,4-oxadiazole-5-carboxamide]
IC50 (TEC): 2250 nM
IC50 (panel of kinases): 2920 nM
IC50 (Btk): 3.19 nM

C=CC(=O)N1CC[C@@H](Nc2n[nH]c3nccc(-c4ccnc(N5CCn6c(cc7c6CC(C)(C)C7)C5=O)c4C=O)c23)C1 [Example 286, (R)-2-(7,7-dimethyl-1-oxo-1,3,4,6,7,8-hexahydro-2H-cyclopenta[4,5]pyrrolo[1,2-a]pyrazin-2-yl)-4-(3-{[1-(prop-2-enoyl)pyrrolidin-3-yl]amino}-1H-pyrazolo[3,4-b]pyridin-4-yl)pyridine-3-carbaldehyde]
IC50 (TEC): 1830 nM
IC50 (panel of kinases): 1510 nM
IC50 (Btk): 482 nM

C=CC(=O)N1CCC[C@@H](Nc2n[nH]c3nccc(-c4ccc(CNC(=O)c5cc(CC(C)C)on5)c(F)c4)c23)[C@H]1C [Example 293, N-{[2-fluoro-4-(3-{[(2R,3R)-2-methyl-1-(prop-2-enoyl)piperidin-3-yl]amino}-1H-pyrazolo[3,4-b]pyridin-4-yl)phenyl]methyl}-5-(2-methylpropyl)-1,2-oxazole-3-carboxamide]
IC50 (TEC): 59.4 nM
IC50 (panel of kinases): 46.1 nM
IC50 (Btk): 1.76 nM

C=CC(=O)N1CC[C@@H](Nc2n[nH]c3nccc(-c4ccc(CNC(=O)c5cc(C(C)(C)O)on5)c(F)c4)c23)C1 [Example 294, N-{[2-fluoro-4-(3-{[(3R)-1-(prop-2-enoyl)pyrrolidin-3-yl]amino}-1H-pyrazolo[3,4-b]pyridin-4-yl)phenyl]methyl}-5-(2-hydroxypropan-2-yl)-1,2-oxazole-3-carboxamide]
IC50 (TEC): 118 nM
IC50 (panel of kinases): 90 nM
IC50 (Btk): 1.45 nM

C=CC(=O)N1CC[C@@H](Nc2n[nH]c3nccc(-c4ccc(CNC(=O)c5coc(C(C)(C)C)n5)c(F)c4)c23)C1 [Example 295, 2-tert-butyl-N-{[2-fluoro-4-(3-{[(3R)-1-(prop-2-enoyl)pyrrolidin-3-yl]amino}-1H-pyrazolo[3,4-b]pyridin-4-yl)phenyl]methyl}-1,3-oxazole-4-carboxamide]
IC50 (TEC): 45.5 nM
IC50 (panel of kinases): 107 nM
IC50 (Btk): 0.171 nM

CN(C)C(=O)N1CC[C@@H](Nc2n[nH]c3nccc(-c4ccc(CNC(=O)c5coc(C(C)(C)C)n5)c(F)c4)c23)C1 [Example 296, 2-tert-butyl-N-{[4-(3-{[(3R)-1-(dimethylcarbamoyl)pyrroli-din-3-yl]amino}-1H-pyrazolo[3,4-b]pyridin-4-yl)-2-fluorophenyl]methyl}-1,3-oxazole-4-carboxamide]
IC50 (TEC): 1650 nM
IC50 (panel of kinases): 4690 nM
IC50 (Btk): 8.97 nM

C=CC(=O)N1CC[C@@H](Nc2n[nH]c3nccc(-c4ccnc(N5CCn6c(cc7c6CC(C)(C)C7)C5=O)c4CO)c23)C1 [Example 298, 2-[3-(hydroxymethyl)-4-(3-{[(3R)-1-(prop-2-enoyl)pyrrolidin-3-yl]amino}-1H-pyrazolo[3,4-b]pyridin-4-yl)pyridin-2-yl]-7,7-dimethyl-3,4,7,8-tetrahydro-2H-cyclopenta[4,5]pyrrolo[1,2-a]pyrazin-1(6H)-one]
IC50 (TEC): 3280 nM
IC50 (panel of kinases): 8030 nM
IC50 (Btk): 1.51 nM

C=CC(=O)N1CC[C@@H](Nc2n[nH]c3nccc(-c4ccc([C@H](C)NC(=O)c5noc(C(C)(C)C)n5)c(F)c4)c23)C1 [Example 303, 5-tert-butyl-N-{(1S)-1-[2-fluoro-4-(3-{[(3R)-1-(prop-2-enoyl)pyrrolidin-3-yl]amino}-1H-pyrazolo[3,4-b]pyridin-4-yl)phenyl]ethyl}-1,2,4-oxadiazole-3-carboxamide]
IC50 (TEC): 239 nM
IC50 (panel of kinases): 119 nM
IC50 (Btk): 1.05 nM
